According to patent US20110003760A1, “ABNORMAL PROTEIN REMOVING METHOD” (priority 2005, published 2011):

Legend:
[1] = system: carbonylated protein in three-dimensional human skin model TESTSKIN (LSE-high); experiment: Carbonylated protein in three-dimensional human skin model, Western blotting (DNPH); type: cell-based; details: for Relative photographic density (carbonylated protein): untreated without UV = 100%
Procedure: (§1) Three-dimensional human skin models are widely used in safety evaluation and effectiveness evaluation as a simulated model of human skin. In this test, TESTSKIN (LSE-high) (Toyobo Co., Ltd.) was used as a three-dimensional human skin model.
(§2) A culture medium was added to the outer well of TESTSKIN (LSE-high) and cultured for 24 hours. UVA and UVB were irradiated at 10 J/cm^2 and 100 mJ/cm^2, respectively. UVB was irradiated for 2 minutes at a UV intensity of […] using FL20S-E-30/DMR (Clinical Supply Co., Ltd.) to achieve a total irradiation dose of 100 mJ/cm^2. UV intensity was measured using a UV MONITOR MS-211-I (Eiko Instruments Co., Ltd.).
As a control group, three-dimensional human skin models not irradiated with UVA or UVB were also prepared.
Thereafter, the culture solution was changed and each agent was added by 100 μl onto the tissues in the assay ring, after which the medium was cultured for 36 hours. Thereafter, the tissues were collected and a tissue extraction solution (50 mM Tris-HCl (pH 7.5), 0.5% (Octylphenoxy) polyethoxyethanol (Sigma-Aldrich Corp.)) was added, and then the mixture was homogenized using a Teflon (registered trademark) homogenizer. The homogenized mixture was centrifuged for 30 minutes at 10,000×G to remove tissue fragments, and then dialyzed overnight in distilled water at 4° C. Thereafter, the dialyzed mixture was freeze-dried to remove water. A tissue extraction solution was added to obtain a ×20 concentrate, and this concentrate was used as a three-dimensional skin model extract sample.
In this test, 2,4-dinitrophenyl hydrazine (DNPH), which specifically bonds with the carbonyl group in the protein produced by oxidation damage, was used to label carbonylated protein, and then detection was performed using an anti-DNPH antibody that specifically bonds with DNPH.
The specific method is explained below. DNPH protein was detected from the protein in the sample by means of Western blotting using a DNPH kit (Oxi Blot™ Protein Oxidation Detection Kit; Chemicon International Inc.). Detection was performed by exposing PVDF membranes to light using a […] (ECL PLUS; Amarsham PLC), and an automatic developer (FPM100; FUJIFILM Medical Co., Ltd.) was used to transfer images. A densitometer (Molecular Dynamics Inc.) was then used to analyze the images to quantify the photographic density. For your information, protein in the sample was reduced and measured as deemed appropriate. In this case, 2-mercaptoethanol was used as a reducing agent and the mixture was heated for 5 minutes at 100° C. to sever the disulfide bond.
Based on the above results, it is clear that Bletilla striata extract and silybin suppress accumulation of carbonylated protein in a three-dimensional skin model in a manner dependent on the concentration. Accordingly, whether or not a combined use of Bletilla striata extract and silybin would synergistically suppress accumulation of carbonylated protein was evaluated. Also, whether or not a combined use of silybin and soybean saponin, a substance known to have an action to suppress accumulation of carbonylated protein, would synergistically suppress accumulation of carbonylated protein was evaluated. As a result, regardless of whether or not UV light was irradiated using silybin (3 μM) in combination with Bletilla striata extract (0.1%; final extract concentration of 0.001%), or using silybin (3 μM) in combination with soybean saponin (0.0005%), suppressed the accumulation of carbonylated protein synergistically compared to when a sample was treated with silybin (3 μM), Bletilla striata extract (0.1%; final extract concentration of 0.001%) or soybean saponin (0.0005%) alone, as far as accumulation of carbonylated protein in a three-dimensional skin model was concerned (FIG. 7 and Table 7; results of non-reduced protein).

[2] = system: carbonylated type I collagen in three-dimensional human skin model; experiment: Carbonylated collagen in three-dimensional human skin model, type I collagen immunoprecipitation and Western blotting; type: cell-based; details: silybin 3 μM, Bletilla striata extract 0.1%, soybean saponin 0.0005%, alone or combined; for Relative photographic density (carbonylated collagen): Table 8, non-reduced protein, untreated without UV = 100%
Procedure: as §1, §2
Thereafter, the culture solution was changed and each agent was added by 100 μl onto the tissues in the assay ring, after which the medium was cultured for 36 hours. […]
Using the protein derived from the three-dimensional human skin model extract treated with each agent, type I collagen was immunoprecipitated by means of a known method (Mizushima, et al., Jpn. J. Cancer Res. Vol. 93, pp. 652-659, 2002). […] The immunoprecipitate was washed three times using a STEN buffer solution, after which 50 μl of a SDS-PAGE sample buffer solution was added and the amount of carbonylated protein and amount of type I collagen were measured by means of Western blotting.
From the results shown in FIG. 7 and Table 7, it is clear that using silybin in combination with Bletilla striata extract, or using silybin in combination with soybean saponin, synergistically suppresses carbonylated protein. Next, whether or not carbonylation of type I collagen would be suppressed by using silybin in combination with Bletilla striata extract, or using silybin in combination with soybean saponin, was evaluated to check the possibility of using such combinations to remove oxidized collagen that accumulates with age to cause lines, sagging, dull complexion and other signs of aging skin. […]

[3] = system: three-dimensional human skin model; experiment: Cell toxicity at treatment concentrations in three-dimensional human skin model; details: at 3 and 10 μM

COc1cc(C2Oc3cc([C@H]4Oc5cc(O)cc(O)c5C(=O)[C@@H]4O)ccc3OC2CO)ccc1O (some centres unmarked) [Silybin, silybin]
Relative photographic density (carbonylated protein) ([1]; Table 7, non-reduced protein, head printed UV (−), silybin 3 μM, Bletilla striata extract 0.1%, soybean saponin 0.0005%, alone or combined): 300% | Relative photographic density (carbonylated protein) ([1]; Table 7, non-reduced protein, first column UV (−), silybin 3 μM, Bletilla striata extract 0.1%, soybean saponin 0.0005%, alone or combined): 60% | amount of carbonylated protein compared to the sample not given any treatment under UV irradiation ([1]; non-reduced protein, 3 μM): 30% | amount of carbonylated protein compared to the sample not given any treatment under UV irradiation ([1]; non-reduced protein, 10 μM): 9% | amount of carbonylated protein compared to the sample not given any treatment under UV irradiation ([1]; non-reduced protein, silybin 3 μM, Bletilla striata extract 0.1%, soybean saponin 0.0005%, alone or combined): 60% | Relative photographic density (carbonylated protein) ([1]; non-reduced protein, treatment concentration 3 μM, UV (+)): 95% | Relative photographic density (carbonylated protein) ([1]; non-reduced protein, treatment concentration 3 μM, UV (−)): 55% | Relative photographic density (carbonylated protein) ([1]; non-reduced protein, treatment concentration 10 μM, UV (+)): 30% | Relative photographic density (carbonylated protein) ([1]; non-reduced protein, treatment concentration 10 μM, UV (−)): 8% | amount of carbonylated protein compared to the sample not given any treatment under UV irradiation ([1]; reduced protein, 3 μM): 25% | amount of carbonylated protein compared to the sample not given any treatment under UV irradiation ([1]; reduced protein, 10 μM): 10% | Relative photographic density (carbonylated protein) ([1]; reduced protein, treatment concentration 3 μM, UV (+)): 85% | Relative photographic density (carbonylated protein) ([1]; reduced protein, treatment concentration 3 μM, UV (−)): 50% | Relative photographic density (carbonylated protein) ([1]; reduced protein, treatment concentration 10 μM, UV (+)): 35% | Relative photographic density (carbonylated protein) ([1]; reduced protein, treatment concentration 10 μM, UV (−)): 5% | Relative photographic density (carbonylated protein) ([1]; reduced protein, treatment concentration 10 μM, UV (−), listed as silybin): 10% | Relative photographic density (carbonylated collagen) ([2]; head printed UV (−)): 430% | Relative photographic density (carbonylated collagen) ([2]; first column UV (−)): 72% | amount of carbonylated collagen compared to the sample not given any treatment under UV irradiation ([2]; non-reduced protein, UV irradiation): 72% | cell toxicity [3]: does not occur
